Legend:
[1] = biological target: T1, 5-hydroxytryptamine receptor 2A (Homo sapiens, UniProt P28223); test: biochemical; format: cell-based, CHO-K1
[2] = Drug level in Wistar rat plasma at 3 mg/kg, ip measured after 30 mins by LC-MS/MS analysis; format: ADME, organism-based
Cavia porcellus [3] = test: Cardiotoxicity in guinea pig assessed as effect on QT interval time at 5 mg/kg, ip measured after 50 mins by ECG analysis (reference value: 127.6 to 131.2 milliseconds); format: toxicity, organism-based; settings: in vivo
Cavia porcellus [4] = test: Cardiotoxicity in guinea pig assessed as effect on QT interval time at 5 mg/kg, ip measured after 60 mins by ECG analysis (reference value: 127.6 to 131.2 milliseconds); format: toxicity, organism-based; settings: in vivo, 1 h
Cavia porcellus [5] = test: Cardiotoxicity in guinea pig assessed as effect on QT interval time at 5 mg/kg, ip measured after 80 mins by ECG analysis (reference value: 127.6 to 131.2 milliseconds); format: toxicity, organism-based; settings: in vivo
Cavia porcellus [6] = test: Cardiotoxicity in guinea pig assessed as effect on QRS interval time at 5 mg/kg, ip measured after 30 mins by ECG analysis (reference value: 26.2 to 31.6 milliseconds); format: toxicity, organism-based; settings: in vivo, 0.5 h
Cavia porcellus [7] = test: Cardiotoxicity in guinea pig assessed as effect on QRS interval time at 5 mg/kg, ip measured after 60 mins by ECG analysis (reference value: 26.2 to 31.6 milliseconds); format: toxicity, organism-based; settings: in vivo, 1 h
Cavia porcellus [8] = test: Cardiotoxicity in guinea pig assessed as effect on RR interval time at 5 mg/kg, ip measured after 70 mins by ECG analysis (reference value: 208.4 to 238.4 milliseconds); format: toxicity, organism-based; settings: in vivo
Cavia porcellus [9] = test: Cardiotoxicity in guinea pig assessed as effect on QTc interval time at 5 mg/kg, ip measured after 40 mins by ECG analysis (reference value: […] to […] milliseconds); format: toxicity, organism-based; settings: in vivo
Cavia porcellus [10] = test: Cardiotoxicity in guinea pig assessed as effect on QTc interval time at 5 mg/kg, ip measured after 60 mins by ECG analysis (reference value: […] to […] milliseconds); format: toxicity, organism-based; settings: in vivo, 1 h
Cavia porcellus [11] = test: Cardiotoxicity in guinea pig assessed as effect on QTc interval time at 5 mg/kg, ip measured after 80 mins by ECG analysis (reference value: […] to […] milliseconds); format: toxicity, organism-based; settings: in vivo
Cavia porcellus [12] = test: Cardiotoxicity in guinea pig assessed as effect on frequence of heart rate at 5 mg/kg, ip measured after 50 mins by ECG analysis (reference value: 262 to 296 /min); format: toxicity, organism-based; settings: in vivo
Cavia porcellus [13] = test: Cardiotoxicity in guinea pig assessed as effect on frequence of heart rate at 5 mg/kg, ip measured after 60 mins by ECG analysis (reference value: 262 to 296 /min); format: toxicity, organism-based; settings: in vivo, 1 h
Cytochrome P450 2C9 = Cytochrome P450 2C9 (Homo sapiens, UniProt P11712); test: Inhibition of human supersome CYP2C9 using diclofenac as substrate assessed as diclofenac 4'-hydroxylation after 30 mins by HPLC-UV detection; format: ADME
[14] = biological target: T2, 5-hydroxytryptamine receptor 1A (Homo sapiens, UniProt P08908); test: biochemical
T2 sequence (P08908 whole entry): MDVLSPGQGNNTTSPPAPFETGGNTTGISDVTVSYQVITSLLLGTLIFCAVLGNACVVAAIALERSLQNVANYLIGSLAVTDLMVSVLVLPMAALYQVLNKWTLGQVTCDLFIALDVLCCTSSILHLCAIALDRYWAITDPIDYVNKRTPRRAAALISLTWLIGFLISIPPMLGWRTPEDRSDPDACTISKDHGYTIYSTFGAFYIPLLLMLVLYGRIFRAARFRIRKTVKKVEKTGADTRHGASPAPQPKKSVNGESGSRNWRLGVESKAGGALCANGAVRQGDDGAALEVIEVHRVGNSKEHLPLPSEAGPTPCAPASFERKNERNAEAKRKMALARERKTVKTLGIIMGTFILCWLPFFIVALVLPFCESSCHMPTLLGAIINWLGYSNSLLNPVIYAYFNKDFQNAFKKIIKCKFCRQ
Description: Displacement of [3H]-8-OH-DPAT from human 5-HT1AR expressed in HEK293 cell membranes after 1 hr by microbeta counting method

Rattus norvegicus = species on record: Rattus norvegicus; test: animal or person; settings: Sprague-Dawley, ip, read-out: MED
Description: Reversal of PCP-induced cognitive impairment in ip dosed Sprague-Dawley rat assessed as reduction in time spent exploring novel object over familiar object pretreated for 60 mins followed by PCP addition by novel object recognition assay

[15] = biological target: T3, 5-hydroxytryptamine receptor 7 (Homo sapiens, UniProt P34969); test: Antagonist activity at human 5-HT7R expressed in human DLD1 cells assessed as inhibition of serotonin-induced cAMP accumulation at 10^-6 M by chemiluminescence-based assay; format: functional, cell-based
[16] = biological target: T2, 5-hydroxytryptamine receptor 1A; test: Displacement of [3H]-WAY100635 from recombinant full-length human 5-HT1AR expressed in CHO cells after 120 mins by scintillation counting method; format: cell-based
[17] = Cmax in Wistar rat plasma at 9 mg/kg per os administered as a single dose by LC-MS/MS analysis; format: ADME, organism-based; parameters: dose 9 mg/kg; settings: po
[18] = biological target: T4, Alpha-1A adrenergic receptor (Homo sapiens) (UniProt P35348); test: Displacement of [3H]-prazosin from human adrenergic alpha1A receptor expressed in CHO cells at 10^-6 M after 60 mins by scintillation counting method relative to control; format: cell-based
T4 sequence (whole entry): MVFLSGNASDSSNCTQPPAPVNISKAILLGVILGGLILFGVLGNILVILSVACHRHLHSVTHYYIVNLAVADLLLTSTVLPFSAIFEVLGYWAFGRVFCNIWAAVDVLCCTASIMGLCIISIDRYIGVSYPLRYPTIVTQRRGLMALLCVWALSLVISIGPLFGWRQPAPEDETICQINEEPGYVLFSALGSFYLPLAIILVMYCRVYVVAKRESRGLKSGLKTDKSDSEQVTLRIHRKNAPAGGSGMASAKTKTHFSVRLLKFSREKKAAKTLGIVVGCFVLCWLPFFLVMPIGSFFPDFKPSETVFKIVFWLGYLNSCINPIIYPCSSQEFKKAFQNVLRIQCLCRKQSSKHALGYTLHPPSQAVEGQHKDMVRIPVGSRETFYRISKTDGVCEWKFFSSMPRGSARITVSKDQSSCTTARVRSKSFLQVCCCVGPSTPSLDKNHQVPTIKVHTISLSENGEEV

[19] = biological target: 5-hydroxytryptamine receptor 2C (Homo sapiens) (UniProt P28335); test: Displacement of [3H]mesulergine from human 5-HT2C receptor expressed in CHO cells at 10^-6 M after 120 mins by scintillation counting analysis relative to control; format: cell-based
[20] = biological target: T3, 5-hydroxytryptamine receptor 7; test: Displacement of [3H]LSD from human recombinant 5-HT7 receptor at 10^-6 M after 120 mins by scintillation counting analysis relative to control
[21] = biological target: Sodium-dependent serotonin transporter (Homo sapiens, UniProt P31645); test: Displacement of [3H]-imipramine from human SERT expressed in CHO cells at 10^-6 M after 60 mins by scintillation counting method relative to control; format: cell-based
[22] = biological target: T5, 5-hydroxytryptamine receptor 1A (Homo sapiens) (UniProt P08908); test: Partial agonist activity at human 5-HT1AR expressed in CHO-K1 cells assessed as increase in calcium flux by fluorimetric method; format: functional, cell-based
T5 sequence (whole entry): T2 sequence (P08908 whole entry)

[23] = biological target: T1, 5-hydroxytryptamine receptor 2A; test: Antagonist activity at human 5-HT2AR expressed in HEK293 cells assessed as inhibition of serotonin-induced IP1 accumulation after 60 mins by HTRF method; format: functional, cell-based

T1 sequence (P28223 whole entry): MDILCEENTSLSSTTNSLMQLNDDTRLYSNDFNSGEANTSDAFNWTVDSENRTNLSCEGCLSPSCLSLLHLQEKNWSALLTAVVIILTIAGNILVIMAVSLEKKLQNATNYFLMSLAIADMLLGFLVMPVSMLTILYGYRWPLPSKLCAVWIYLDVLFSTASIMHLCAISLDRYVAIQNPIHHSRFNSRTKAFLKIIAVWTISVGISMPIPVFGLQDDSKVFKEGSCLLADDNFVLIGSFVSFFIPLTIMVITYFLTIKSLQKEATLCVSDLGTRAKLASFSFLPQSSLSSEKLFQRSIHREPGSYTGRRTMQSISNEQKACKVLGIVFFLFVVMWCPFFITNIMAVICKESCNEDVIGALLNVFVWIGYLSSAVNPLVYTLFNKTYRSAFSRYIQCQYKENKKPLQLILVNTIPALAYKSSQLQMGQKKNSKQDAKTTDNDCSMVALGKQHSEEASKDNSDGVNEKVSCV
Chain of Cytochrome P450 2C9 (P11712 whole entry): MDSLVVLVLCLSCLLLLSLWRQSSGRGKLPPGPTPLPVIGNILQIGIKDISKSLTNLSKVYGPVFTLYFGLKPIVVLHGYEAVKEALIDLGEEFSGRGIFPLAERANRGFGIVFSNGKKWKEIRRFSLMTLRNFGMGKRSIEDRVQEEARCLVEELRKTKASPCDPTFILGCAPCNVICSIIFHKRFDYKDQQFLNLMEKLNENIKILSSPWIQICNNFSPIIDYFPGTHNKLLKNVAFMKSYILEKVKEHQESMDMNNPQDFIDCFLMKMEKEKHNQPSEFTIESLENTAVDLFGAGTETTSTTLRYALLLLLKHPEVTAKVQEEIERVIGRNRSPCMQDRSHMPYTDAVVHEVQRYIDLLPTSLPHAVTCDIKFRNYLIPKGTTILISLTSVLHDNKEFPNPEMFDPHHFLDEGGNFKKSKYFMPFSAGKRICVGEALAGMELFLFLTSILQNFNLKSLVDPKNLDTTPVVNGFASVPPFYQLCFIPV
T3 sequence (P34969 whole entry): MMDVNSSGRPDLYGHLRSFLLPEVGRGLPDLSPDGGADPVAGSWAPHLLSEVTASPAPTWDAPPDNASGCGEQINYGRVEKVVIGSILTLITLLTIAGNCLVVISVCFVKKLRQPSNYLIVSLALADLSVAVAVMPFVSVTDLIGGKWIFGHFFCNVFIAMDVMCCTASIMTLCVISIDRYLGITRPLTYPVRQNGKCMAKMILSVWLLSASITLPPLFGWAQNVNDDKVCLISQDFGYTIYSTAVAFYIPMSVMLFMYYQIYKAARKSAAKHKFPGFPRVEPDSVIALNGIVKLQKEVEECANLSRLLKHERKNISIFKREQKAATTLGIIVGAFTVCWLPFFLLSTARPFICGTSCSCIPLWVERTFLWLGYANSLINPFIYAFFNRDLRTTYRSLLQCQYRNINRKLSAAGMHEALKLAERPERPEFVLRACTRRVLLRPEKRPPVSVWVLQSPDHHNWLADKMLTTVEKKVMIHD
Chain of Sodium-dependent serotonin transporter (P31645 whole entry, looked up): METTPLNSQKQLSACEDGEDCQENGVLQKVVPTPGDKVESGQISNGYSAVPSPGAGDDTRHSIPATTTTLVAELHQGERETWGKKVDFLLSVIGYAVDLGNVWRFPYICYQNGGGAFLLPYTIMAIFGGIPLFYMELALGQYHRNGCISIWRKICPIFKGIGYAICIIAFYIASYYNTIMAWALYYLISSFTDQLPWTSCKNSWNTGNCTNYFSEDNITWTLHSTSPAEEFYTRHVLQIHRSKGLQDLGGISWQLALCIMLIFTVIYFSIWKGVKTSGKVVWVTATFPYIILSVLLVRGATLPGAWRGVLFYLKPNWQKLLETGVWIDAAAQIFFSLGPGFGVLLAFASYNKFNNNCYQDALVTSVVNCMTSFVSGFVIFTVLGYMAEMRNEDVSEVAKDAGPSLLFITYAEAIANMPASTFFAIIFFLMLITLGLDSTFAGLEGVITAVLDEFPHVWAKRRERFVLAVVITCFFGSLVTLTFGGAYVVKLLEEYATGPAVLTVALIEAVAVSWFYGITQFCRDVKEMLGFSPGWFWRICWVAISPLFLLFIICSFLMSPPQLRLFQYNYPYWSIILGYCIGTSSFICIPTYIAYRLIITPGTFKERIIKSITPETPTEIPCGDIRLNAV
Chain of 5-hydroxytryptamine receptor 2C (Homo sapiens) (P28335 whole entry): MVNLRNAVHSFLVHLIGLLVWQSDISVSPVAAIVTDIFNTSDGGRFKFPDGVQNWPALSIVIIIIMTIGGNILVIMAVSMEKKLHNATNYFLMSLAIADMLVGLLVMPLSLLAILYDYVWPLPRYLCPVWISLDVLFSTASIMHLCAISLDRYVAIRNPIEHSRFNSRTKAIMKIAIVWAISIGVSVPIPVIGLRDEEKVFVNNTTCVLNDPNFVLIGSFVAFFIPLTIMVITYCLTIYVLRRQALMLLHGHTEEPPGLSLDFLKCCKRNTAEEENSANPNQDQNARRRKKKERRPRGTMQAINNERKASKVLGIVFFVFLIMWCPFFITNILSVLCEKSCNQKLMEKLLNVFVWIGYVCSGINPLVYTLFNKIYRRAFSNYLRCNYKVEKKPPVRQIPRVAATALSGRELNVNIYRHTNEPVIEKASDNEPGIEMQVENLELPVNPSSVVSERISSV

| SMILES | Ki [1] [nM] | concentration at 0.5 h [2] [nM] | Time (Cavia porcellus [3]) [ms] | Time (Cavia porcellus [4]) [ms] | Time (Cavia porcellus [5]) [ms] | Time (Cavia porcellus [6]) [ms] | Time (Cavia porcellus [7]) [ms] | Time (Cavia porcellus [8]) [ms] | Time (Cavia porcellus [9]) [ms] | Time (Cavia porcellus [10]) [ms] | Time (Cavia porcellus [11]) [ms] | Activity (Cavia porcellus [12]) [min⁻¹] | Activity (Cavia porcellus [13]) [min⁻¹] | IC50 (Cytochrome P450 2C9) [nM] | Ki [14] [nM] | minimal effective dose (Rattus norvegicus) [mg/kg] | also measured |
| --- | --- | --- | --- | --- | --- | --- | --- | --- | --- | --- | --- | --- | --- | --- | --- | --- | --- |
| O=S(=O)(c1cncc2ccccc12)N1CCC[C@H]1CCN1CCN(c2nsc3ccccc23)CC1 | 13 | 177 | 121.6 | 125.8 | 125.6 | 26.8 | 27.2 | 211.4 | 274.2 | 275.8 | 273.4 | 288 | 288 | 100000 | 37 | 1 |  |
| O=S(=O)(c1cncc2ccccc12)N1CCC[C@H]1CCN1CCN(c2cccc3sccc23)CC1 | 9 | 105 | 124.8 | 124.6 | 123.6 | 32.4 | 30.4 | 214.8 | 263.4 | 266.6 | 268 | 270 | 276 | > 100000 | 18 | 1 | inhibition [15]: 94%; Ki [16]: 18 nM; Cmax [17]: 54 nM; inhibition [18]: 94%; inhibition [19]: 80%; inhibition [20]: 100%; inhibition [21]: 84%; Kb [22]: 28.3 nM; Kb [23]: 2.3 nM |
